Measured values as given in patent US9695155B2, “Herbicidal substituted pyrimidinyloxy benzene compounds” (E. I. DU PONT DE NEMOURS AND COMPANY, priority 2013, dated 2017).

Columns and labels:
soybean = assay: Test C postemergence; assay type: in vivo, Glycine max; conditions: for Plant response rating, Soybean: Postemergence
Outline: (§1)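 Visual injury score versus untreated controls, 0 = no effect, 100 = complete control, taken 13 to 15 days after treatment in the greenhouse. Pre-emergence pots held loam/sand; post-emergence plants grew in sphagnum peat/vermiculite mix and were sprayed at the 1- to 4-leaf stage.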

morningglory [1] = assay: Test A preemergence; assay type: in vivo, Ipomoea spp.; conditions: for Morningglory plant response rating: 500 g ai/ha
Outline: (§2)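 Visual injury scored 0–100 (100 = complete control) against untreated controls about 10 days after treatment in a greenhouse. Test chemicals, formulated with surfactant in non-phytotoxic solvent, were sprayed on soil preemergence or on 2-10 cm, one- to two-leaf plants postemergence.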

corn = assay: Test A postemergence; assay type: in vivo, Zea mays
Outline: as §2

pigweed = assay: Test C postemergence; assay type: in vivo, Amaranthus retroflexus; conditions: for Plant response rating, Pigweed: Postemergence
Outline: as §1

velvetleaf [2] = assay: Test A postemergence; assay type: in vivo, Abutilon theophrasti
Outline: as §2

giant foxtail = assay: Test A preemergence; assay type: in vivo, Setaria faberii; conditions: for Plant response rating, Foxtail, Giant: 125 g ai/ha; for Foxtail, Giant plant response rating: 500 g ai/ha
Outline: as §2

blackgrass = assay: Test C postemergence; assay type: in vivo, Alopecurus myosuroides; conditions: for Plant response rating, Blackgrass: Postemergence
Outline: as §1

galium = assay: Test C postemergence; assay type: in vivo, Galium aparine; conditions: for Plant response rating, Galium: Postemergence
Outline: as §1

waterhemp = assay: Test C postemergence; assay type: in vivo, Amaranthus rudis; conditions: for Plant response rating, Waterhemp: Postemergence
Outline: as §1

wheat, winter = assay: Test C postemergence; assay type: in vivo, Triticum aestivum; conditions: for Plant response rating, Wheat: Postemergence
Outline: as §1

wheat = assay: Test A preemergence; assay type: in vivo, Triticum aestivum; conditions: for Wheat plant response rating: 500 g ai/ha
Outline: as §2

johnsongrass = assay: Test C postemergence; assay type: in vivo, Sorghum halepense; conditions: for Plant response rating, Johnsongrass: Postemergence
Outline: as §1

velvetleaf [3] = assay: Test C postemergence; assay type: in vivo, Abutilon theophrasti; conditions: for Plant response rating, Velvetleaf: Postemergence
Outline: as §1

kochia = assay: Test C postemergence; assay type: in vivo, Kochia scoparia; conditions: for Plant response rating, Kochia: Postemergence
Outline: as §1

ragweed = assay: Test C postemergence; assay type: in vivo, Ambrosia elatior; conditions: for Plant response rating, Ragweed: Postemergence
Outline: as §1

velvetleaf [4] = assay: Test A preemergence; assay type: in vivo, Abutilon theophrasti; conditions: for Velvetleaf plant response rating: 500 g ai/ha
Outline: as §2

morningglory [5] = assay: Test A postemergence; assay type: in vivo, Ipomoea spp.
Outline: as §2

oilseed rape = assay: Test C postemergence; assay type: in vivo, Brassica napus; conditions: for Plant response rating, Oilseed Rape: Postemergence
Outline: as §1

[6] = 31 g ai/ha, scale 0 to 100 (0 no effect, 100 complete control), 13 to 15 days
[7] = 62 g ai/ha, scale 0 to 100 (0 no effect, 100 complete control)
[8] = 125 g ai/ha, 0 to 100 scale where 0 is no effect and 100 is complete control
[9] = 0 to 100 scale, 0 no effect, 100 complete control, approx. 10 days
[10] = 500 g ai/ha, 0 to 100 scale, 0 no effect, 100 complete control
[11] = 0 to 100 scale where 0 is no effect and 100 is complete control
[12] = 8 g ai/ha, postemergence, 0 is no effect, 100 is complete control
[13] = 16 g ai/ha, postemergence, 0 is no effect, 100 is complete control
[14] = 31 g ai/ha, postemergence, visual rating, scale 0 to 100 (0 no effect, 100 complete control), 13 to 15 days
[15] = 500 g ai/ha, 0 to 100 scale where 0 is no effect and 100 is complete control

SMILES: N#Cc1cccc(Oc2ncc(Br)cn2)c1-n1cc(Br)cn1 [Compound 57]
- Plant response rating (0 to 100), Soybean (soybean; 125 g ai/ha, postemergence): 95
- Plant response rating (0 to 100), Soybean (soybean; 250 g ai/ha, postemergence): 100
- Plant response rating, Soybean (soybean; [6]): 65
- Plant response rating, Soybean (soybean; [7]): 85
- Plant response rating, Morningglory (morningglory [1]; [8]): 0
- Morningglory plant response rating (morningglory [1]; [9]): 40
- Plant response rating, Corn (corn; [8]): 30
- Plant response rating, Corn (corn; [10]): 90
- Plant response rating (0 to 100), Pigweed (pigweed; 250 g ai/ha, postemergence): 95
- Plant response rating, Pigweed (pigweed; [6]): 65
- Plant response rating, Pigweed (pigweed; [7]): 85
- Plant response rating, Velvetleaf (velvetleaf [2]; [8]): 100
- Plant response rating, Velvetleaf (velvetleaf [2]; [10]): 100
- Plant response rating, Foxtail, Giant (giant foxtail; [11]): 80
- Foxtail, Giant plant response rating (giant foxtail; [9]): 100
- Plant response rating (0 to 100), Blackgrass (blackgrass; 125 g ai/ha, postemergence): 30
- Plant response rating (0 to 100), Blackgrass (blackgrass; 250 g ai/ha, postemergence): 30
- Plant response rating, Blackgrass (blackgrass; [6]): 10
- Plant response rating, Blackgrass (blackgrass; [7]): 15
- Plant response rating (0 to 100), Galium (galium; 125 g ai/ha, postemergence): 70
- Plant response rating (0 to 100), Galium (galium; 250 g ai/ha, postemergence): 95
- Plant response rating, Galium (galium; [6]): 50
- Plant response rating, Galium (galium; [7]): 50
- Plant response rating (0 to 100), Waterhemp (waterhemp; 125 g ai/ha, postemergence): 80
- Plant response rating (0 to 100), Waterhemp (waterhemp; 250 g ai/ha, postemergence): 90
- Plant response rating, Waterhemp (waterhemp; [6]): 75
- Plant response rating, Waterhemp (waterhemp; [7]): 80
- Plant response rating (0 to 100), Wheat (wheat, winter; 125 g ai/ha, postemergence): 10
- Plant response rating (0 to 100), Wheat (wheat, winter; 250 g ai/ha, postemergence): 15
- Plant response rating, Wheat (wheat, winter; [6]): 0
- Plant response rating, Wheat (wheat, winter; [7]): 5
- Plant response rating, Wheat (wheat; [8]): 0
- Wheat plant response rating (wheat; [9]): 50
- Plant response rating (0 to 100), Johnsongrass (johnsongrass; 125 g ai/ha, postemergence): 5
- Plant response rating (0 to 100), Johnsongrass (johnsongrass; 250 g ai/ha, postemergence): 20
- Plant response rating, Johnsongrass (johnsongrass; [6]): 5
- Plant response rating, Johnsongrass (johnsongrass; [7]): 5
- Plant response rating (0 to 100), Velvetleaf (velvetleaf [3]; 125 g ai/ha, postemergence): 40
- Plant response rating (0 to 100), Velvetleaf (velvetleaf [3]; 250 g ai/ha, postemergence): 60
- Plant response rating, Velvetleaf (velvetleaf [3]; [6]): 25
- Plant response rating, Velvetleaf (velvetleaf [3]; [7]): 35
- Plant response rating (0 to 100), Kochia (kochia; 125 g ai/ha, postemergence): 90
- Plant response rating (0 to 100), Kochia (kochia; 250 g ai/ha, postemergence): 100
- Plant response rating, Kochia (kochia; [6]): 85
- Plant response rating, Kochia (kochia; [7]): 90
- Plant response rating (0 to 100), Ragweed (ragweed; 125 g ai/ha, postemergence): 55
- Plant response rating (0 to 100), Ragweed (ragweed; 250 g ai/ha, postemergence): 65
- Plant response rating, Ragweed (ragweed; [6]): 35
- Plant response rating, Ragweed (ragweed; [7]): 40
- Plant response rating, Velvetleaf (velvetleaf [4]; [8]): 40
- Velvetleaf plant response rating (velvetleaf [4]; [9]): 100
- Plant response rating, Morningglory (morningglory [5]; [8]): 90
- Plant response rating, Morningglory (morningglory [5]; [10]): 80
- Plant response rating (0 to 100), Oilseed Rape (oilseed rape; 125 g ai/ha, postemergence): 80
- Plant response rating (0 to 100), Oilseed Rape (oilseed rape; 250 g ai/ha, postemergence): 85
- Plant response rating, Oilseed Rape (oilseed rape; [6]): 30
- Plant response rating, Oilseed Rape (oilseed rape; [7]): 40

SMILES: O=Cc1cccc(Oc2ncc(I)cn2)c1-n1cc(Br)cn1 [Compound 172]
- Plant response rating (0 to 100), Soybean (soybean; [12]): 0
- Plant response rating (0 to 100), Soybean (soybean; [13]): 0
- Soybean plant response rating (soybean; [14]): 0
- Plant response rating, Soybean (soybean; [7]): 5
- Morningglory plant response rating (0 to 100 scale) (morningglory [1]; 125 g ai/ha): 0
- Morningglory plant response rating (morningglory [1]; [11]): 0
- Corn plant response rating (corn; [8]): 0
- Plant response rating, Corn (corn; [15]): 20
- Plant response rating (0 to 100), Pigweed (pigweed; [12]): 5
- Plant response rating (0 to 100), Pigweed (pigweed; [13]): 10
- Pigweed plant response rating (pigweed; [14]): 10
- Plant response rating, Pigweed (pigweed; [7]): 5
- Velvetleaf plant response rating (velvetleaf [2]; [8]): 90
- Plant response rating, Velvetleaf (velvetleaf [2]; [15]): 100
- Plant response rating, Foxtail, Giant (giant foxtail; [11]): 0
- Foxtail, Giant plant response rating (giant foxtail; [11]): 0
- Plant response rating (0 to 100), Blackgrass (blackgrass; [12]): 0
- Plant response rating (0 to 100), Blackgrass (blackgrass; [13]): 0
- Blackgrass plant response rating (blackgrass; [14]): 20
- Plant response rating, Blackgrass (blackgrass; [7]): 0
- Plant response rating (0 to 100), Galium (galium; [12]): 0
- Plant response rating (0 to 100), Galium (galium; [13]): 0
- Galium plant response rating (galium; [14]): 0
- Plant response rating, Galium (galium; [7]): 10
- Plant response rating (0 to 100), Waterhemp (waterhemp; [12]): 0
- Plant response rating (0 to 100), Waterhemp (waterhemp; [13]): 5
- Waterhemp plant response rating (waterhemp; [14]): 5
- Plant response rating, Waterhemp (waterhemp; [7]): 5
- Plant response rating (0 to 100), Wheat (wheat, winter; [12]): 0
- Plant response rating (0 to 100), Wheat (wheat, winter; [13]): 0
- Wheat plant response rating (wheat, winter; [14]): 0
- Plant response rating, Wheat (wheat, winter; [7]): 0
- Wheat plant response rating (0 to 100 scale) (wheat; 125 g ai/ha): 0
- Wheat plant response rating (wheat; [11]): 0
- Plant response rating (0 to 100), Johnsongrass (johnsongrass; [12]): 0
- Plant response rating (0 to 100), Johnsongrass (johnsongrass; [13]): 0
- Johnsongrass plant response rating (johnsongrass; [14]): 10
- Plant response rating, Johnsongrass (johnsongrass; [7]): 10
- Plant response rating (0 to 100), Velvetleaf (velvetleaf [3]; [12]): 5
- Plant response rating (0 to 100), Velvetleaf (velvetleaf [3]; [13]): 5
- Velvetleaf plant response rating (velvetleaf [3]; [14]): 10
- Plant response rating, Velvetleaf (velvetleaf [3]; [7]): 10
- Plant response rating (0 to 100), Kochia (kochia; [12]): 0
- Plant response rating (0 to 100), Kochia (kochia; [13]): 0
- Kochia plant response rating (kochia; [14]): 0
- Plant response rating, Kochia (kochia; [7]): 30
- Plant response rating (0 to 100), Ragweed (ragweed; [12]): 0
- Plant response rating (0 to 100), Ragweed (ragweed; [13]): 0
- Ragweed plant response rating (ragweed; [14]): 0
- Plant response rating, Ragweed (ragweed; [7]): 0
- Velvetleaf plant response rating (0 to 100 scale) (velvetleaf [4]; 125 g ai/ha): 0
- Velvetleaf plant response rating (velvetleaf [4]; [11]): 0
- Morningglory plant response rating (morningglory [5]; [8]): 80
- Plant response rating, Morningglory (morningglory [5]; [15]): 90
- Plant response rating (0 to 100), Oilseed Rape (oilseed rape; [12]): 0
- Plant response rating (0 to 100), Oilseed Rape (oilseed rape; [13]): 0
- Oilseed Rape plant response rating (oilseed rape; [14]): 0
- Plant response rating, Oilseed Rape (oilseed rape; [7]): 0
